Consider eight molecules from US20260325533A1, “CDK INHIBITOR COMPOUNDS” (ALEKSIA THERAPEUTICS, INC., priority 2023, published 2026).

What all share (format): biochemical
The target in one assay is CDK1/CCNB1 (Homo sapiens, UniProt P06493). The experiment in a line: CDK1 homogeneous time-resolved fluorescence (HTRF) kinase assay. The conditions noted are these: 0.5 nM CDK1/CCNB1, 1 mM ATP. In short, it runs like this:
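Compounds, titrated 11 points in half-log steps typically from 10 μM, were incubated with enzyme for 20 min before ATP (1 mM) and ULight-labelled eIF4E-binding protein 1 peptide (50 nM) started a 60-min reaction at 23 °C. Phosphopeptide was detected by europium-antibody TR-FRET and IC50 values were derived.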
In general terms: In TR-FRET formats the signal depends on donor and acceptor labels being close together.

A further assay concerns the target CDK2/CCNE1 (Homo sapiens, UniProt P24941). The experiment in a line: CDK2 homogeneous time-resolved fluorescence (HTRF) kinase assay. The settings on record: 3 nM CDK2/CCNE1, 1 mM ATP. In short, it runs like this:
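3 nM CDK2/CCNE1 was preincubated with compound for 20 min at 23 °C in HEPES buffer (pH not stated), then reacted 60 min with 1 mM ATP and 50 nM ULight-4E-BP1 (Thr37/46) peptide. After EDTA stop, Eu-anti-phospho-4E-BP1 antibody (2 nM) was added for 60 min and TR-FRET read at 665 nm.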

In the next assay the target is CDK6/CCND1 (Homo sapiens, UniProt Q00534). The experiment in a line: CDK6 homogeneous time-resolved fluorescence (HTRF) kinase assay. The conditions noted are these: 1 nM CDK6/CCND1, 1 mM ATP. In short, it runs like this: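 Enzyme pre-incubated 20 min at 23 °C with compound, then reacted 60 min at 23 °C with 1 mM ATP and 50 nM ULight-4E-BP1 (Thr37/46) peptide; 1 nM enzyme, 1% DMSO. EDTA-stopped, Eu-anti-phospho antibody TR-FRET read (665 nm or 665/615 ratio); 11-point half-log titration from 10 μM gave IC50.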

The next assay has as its target CDK4/CCND3 (Homo sapiens, UniProt P11802). The experiment in a line: CDK4 homogeneous time-resolved fluorescence (HTRF) kinase assay. The conditions noted are these: 1.5 nM CDK4/CCND3, 1 mM ATP. In short, it runs like this: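 Steps: compound plus 1.5 nM CDK4/CCND3, 20 min, 23 °C; add 1 mM ATP and 50 nM ULight-4E-BP1 (Thr37/46) peptide, 60 min; stop with 10 mM EDTA; add 2 nM Eu anti-phospho antibody, 60 min; read 665 nm. IC50 from 11-point half-log series starting 10 μM.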

Where [1] appears, read: read-out: CDK1/CCNB IC50 >250 nM.
[2] abbreviates: read-out: CDK6/CCND IC50 >250 nM.
Setting [3] is: read-out: CDK4/CCND IC50 >250 nM.
Where [4] appears, read: read-out: CDK1/CCNB IC50 25-250 nM.
Where [5] appears, read: read-out: CDK2/CCNE IC50 <25 nM.
Where [6] appears, read: read-out: CDK6/CCND IC50 <25 nM.
[7] abbreviates: read-out: CDK4/CCND IC50 25-250 nM.
[8] abbreviates: read-out: CDK6/CCND IC50 25-250 nM.

Where two headings read alike, the source gives them in different places. Where only a bound is given, the exact number is not on record here.

CDK6/CCND1, sequence (Q00534 whole entry): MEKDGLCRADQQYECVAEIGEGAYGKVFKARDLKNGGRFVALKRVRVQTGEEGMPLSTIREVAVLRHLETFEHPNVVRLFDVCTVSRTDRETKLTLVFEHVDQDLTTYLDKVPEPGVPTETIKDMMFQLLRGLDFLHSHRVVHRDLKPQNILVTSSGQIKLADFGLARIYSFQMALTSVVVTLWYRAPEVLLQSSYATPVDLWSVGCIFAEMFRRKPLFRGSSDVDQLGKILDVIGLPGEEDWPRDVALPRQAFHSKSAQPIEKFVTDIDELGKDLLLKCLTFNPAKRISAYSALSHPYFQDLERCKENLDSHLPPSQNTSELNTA
CDK6/CCND1, sequence (P24385 whole entry partner): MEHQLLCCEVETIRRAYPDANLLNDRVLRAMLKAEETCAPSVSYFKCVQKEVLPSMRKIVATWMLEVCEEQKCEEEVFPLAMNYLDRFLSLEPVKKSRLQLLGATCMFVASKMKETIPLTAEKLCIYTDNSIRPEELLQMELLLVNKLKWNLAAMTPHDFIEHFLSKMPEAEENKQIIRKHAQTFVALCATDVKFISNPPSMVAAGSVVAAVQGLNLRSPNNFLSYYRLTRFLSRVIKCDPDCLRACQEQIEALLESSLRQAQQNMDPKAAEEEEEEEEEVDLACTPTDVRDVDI
CDK1/CCNB1, sequence (P06493 whole entry): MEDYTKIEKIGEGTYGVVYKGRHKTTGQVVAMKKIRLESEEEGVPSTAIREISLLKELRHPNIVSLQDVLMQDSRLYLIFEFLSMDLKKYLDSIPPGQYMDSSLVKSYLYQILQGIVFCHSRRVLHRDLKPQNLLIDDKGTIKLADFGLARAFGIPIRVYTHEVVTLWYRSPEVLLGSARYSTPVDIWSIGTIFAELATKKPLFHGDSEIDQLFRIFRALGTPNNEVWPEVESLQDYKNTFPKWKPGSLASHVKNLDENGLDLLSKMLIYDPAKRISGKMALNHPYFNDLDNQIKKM
CDK1/CCNB1, sequence (P14635 whole entry partner): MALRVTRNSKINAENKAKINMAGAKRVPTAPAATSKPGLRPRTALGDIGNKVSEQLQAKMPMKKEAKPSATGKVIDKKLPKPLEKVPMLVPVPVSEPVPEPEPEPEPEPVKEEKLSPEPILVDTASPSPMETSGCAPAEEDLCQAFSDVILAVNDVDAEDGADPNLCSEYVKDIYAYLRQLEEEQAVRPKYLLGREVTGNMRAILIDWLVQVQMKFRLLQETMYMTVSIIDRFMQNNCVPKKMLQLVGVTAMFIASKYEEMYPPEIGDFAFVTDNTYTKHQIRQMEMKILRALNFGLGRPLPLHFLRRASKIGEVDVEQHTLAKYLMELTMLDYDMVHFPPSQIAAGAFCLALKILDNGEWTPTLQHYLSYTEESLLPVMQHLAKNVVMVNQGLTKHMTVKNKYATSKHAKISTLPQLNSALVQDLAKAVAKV
CDK4/CCND3, sequence (P11802 whole entry): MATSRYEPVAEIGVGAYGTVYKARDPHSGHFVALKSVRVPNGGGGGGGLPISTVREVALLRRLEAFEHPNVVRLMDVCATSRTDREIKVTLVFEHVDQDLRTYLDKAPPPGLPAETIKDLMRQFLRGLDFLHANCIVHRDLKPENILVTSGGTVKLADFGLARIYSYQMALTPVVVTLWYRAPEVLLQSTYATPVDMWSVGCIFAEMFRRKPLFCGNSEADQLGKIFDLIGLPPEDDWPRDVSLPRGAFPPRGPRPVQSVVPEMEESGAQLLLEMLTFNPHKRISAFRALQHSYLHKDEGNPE
CDK4/CCND3, sequence (P30281 whole entry partner): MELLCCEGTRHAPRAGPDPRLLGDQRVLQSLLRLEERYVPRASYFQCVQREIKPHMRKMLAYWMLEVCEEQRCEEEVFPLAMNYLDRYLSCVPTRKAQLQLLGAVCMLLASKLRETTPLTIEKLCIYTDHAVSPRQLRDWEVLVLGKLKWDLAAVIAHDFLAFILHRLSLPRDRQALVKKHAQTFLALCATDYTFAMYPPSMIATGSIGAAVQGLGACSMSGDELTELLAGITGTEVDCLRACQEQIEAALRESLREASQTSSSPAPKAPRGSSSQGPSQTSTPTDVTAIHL

On to `CS(=O)(=O)c1ccc(Nc2ncc3ccc(C#N)c(C#Cc4ccc(C#N)cc4)c3n2)cc1` [Example 955, 8-((4-cyanophenyl)ethynyl)-2-((4-(methylsulfonyl)phenyl)amino) quinazoline-7-carbonitrile], for which the IC50 on CDK1/CCNB1 (setting [1]), at CDK2/CCNE1 (read-out: CDK2/CCNE IC50 >250 nM), at CDK6/CCND1 (setting [2]) and on CDK4/CCND3 (setting [3]) was greater than 250 nM each time.
With `CS(=O)(=O)c1ccc(Nc2ncc3ccnc(C4=CCCCC4)c3n2)cc1` [Example 956, 8-(cyclohex-1-en-1-yl)-N-(4-(methylsulfonyl)phenyl)pyrido[3,4-d]pyrimidin-2-amine], the IC50 on CDK1/CCNB1 (setting [4]) was 25 to 250 nM; at CDK2/CCNE1 (setting [5]), less than 25 nM; at CDK6/CCND1 (setting [6]) it was less than 25 nM; on CDK4/CCND3 (setting [7]), 25 to 250 nM.
Take `CS(=O)(=O)c1ccc(Nc2ncc3ccc(C#N)c(N4CCC(C#N)CC4)c3n2)cc1` [Example 957, 8-(4-cyanopiperidin-1-yl)-2-((4-(methylsulfonyl)phenyl)amino) quinazoline-7-carbonitrile]: the IC50 is 25 to 250 nM on CDK1/CCNB1 (setting [4]), less than 25 nM at CDK2/CCNE1 (setting [5]), less than 25 nM on CDK6/CCND1 (setting [6]) and less than 25 nM at CDK4/CCND3 (read-out: CDK4/CCND IC50 <25 nM).
Regarding `CS(=O)(=O)c1ccc(Nc2ncc3ccnc(N4CCC(C#N)CC4)c3n2)cc1` [Example 958, 1-(2-((4-(methylsulfonyl)phenyl)amino)pyrido [3,4-d]pyrimidin-8-yl)piperidine-4-carbonitrile], the IC50 at CDK1/CCNB1 (setting [1]) is greater than 250 nM; on CDK2/CCNE1 (setting [5]) it was less than 25 nM; on CDK6/CCND1 (setting [6]), less than 25 nM; at CDK4/CCND3 (setting [7]), 25 to 250 nM.
In the case of `Cc1c(-c2c(C#N)ccc3cnc(Nc4ccc(S(C)(=O)=O)cc4)nc23)ccc2c1cnn2CCO` [Example 962, 8-(1-(2-hydroxyethyl)-4-methyl-1H-indazol-5-yl)-2-((4-(methylsulfonyl)phenyl)amino) quinazoline-7-carbonitrile], the IC50 is 25 to 250 nM on CDK1/CCNB1 (setting [4]), less than 25 nM at CDK2/CCNE1 (setting [5]), 25 to 250 nM on CDK6/CCND1 (setting [8]) and 25 to 250 nM on CDK4/CCND3 (setting [7]).
In the case of `Cc1c(-c2nccc3cnc(Nc4ccc(S(C)(=O)=O)cc4)nc23)ccc2c1cnn2CCO` [Example 963, 2-(4-methyl-5-(2-((4-(methylsulfonyl)phenyl)amino)pyrido [3,4-d]pyrimidin-8-yl)-1H-indazol-1-yl)ethan-1-ol], the IC50 was 25 to 250 nM on CDK1/CCNB1 (setting [4]), less than 25 nM on CDK2/CCNE1 (setting [5]), 25 to 250 nM on CDK6/CCND1 (setting [8]) and 25 to 250 nM at CDK4/CCND3 (setting [7]).
As to `Cc1c(-c2c(C#N)ccc3cnc(Nc4ccc(S(C)(=O)=O)cc4)nc23)ccc2nn(C)cc12` [Example 964, 8-(2,4-dimethyl-2H-indazol-5-yl)-2-((4-(methylsulfonyl)phenyl)amino) quinazoline-7-carbonitrile], the IC50 on CDK1/CCNB1 (setting [4]) is 25 to 250 nM; on CDK2/CCNE1 (setting [5]), less than 25 nM; on CDK6/CCND1 (setting [8]), 25 to 250 nM; at CDK4/CCND3 (setting [7]) it was 25 to 250 nM.
In the case of `Cc1c(-c2nccc3cnc(Nc4ccc(S(C)(=O)=O)cc4)nc23)ccc2nn(C)cc12` [Example 965, 8-(2,4-dimethyl-2H-indazol-5-yl)-N-(4-(methylsulfonyl)phenyl)pyrido[3,4-d]pyrimidin-2-amine], the IC50 is greater than 250 nM on CDK1/CCNB1 (setting [1]), less than 25 nM at CDK2/CCNE1 (setting [5]), greater than 250 nM at CDK6/CCND1 (setting [2]) and greater than 250 nM at CDK4/CCND3 (setting [3]).
